Source: patent EP4700040A1, “PEPTIDE AND LUMINESCENT COMPLEX CONTAINING SAME” (Shenzhen Loggene Life Science & Technology Co., Ltd., priority 2023, dated 2024)

Experiments:
[1] = test system: PCT; test: Second library screening for PCT detection, clone supernatants, retest with CTZ-h (Example 4); assay type: biochemical, human; settings: for Signal-to-noise ratio: PCT+/PCT-, MBP-PCT 3.3 ng/ml, CTZ-h; for PCT+: luminescence signal value with MBP-PCT 3.3 ng/ml; for PCT+ / PCT-: large subunit-rSCFV5 12.5 nM, CTZ-h 25 µM, 60 s; for PCT-: luminescence signal value, PBSAD control without PCT
Method: In order to further improve the signal-to-noise ratio and complementary activity of the luciferase dual-antibody complementary activation assay, novel complementary luciferase small subunits were prepared in this example. Large subunit-rSCFV5 fusion protein (SEQ ID NO: 87) was kept unchanged, and the small subunit sequence of the rSCFV18-RB073 fusion protein (SEQ ID NO: 89) were modified by semi-randomization. The theoretical diversity was 6912, the library capacity was 10^6, and 3,000 single clones were picked. The method of protein induction and expression was the same as that in Example 2.
Detection Methods: • (1) The concentration of large subunit-rSCFV5 fusion protein was diluted to 12.5 nM, and 15 µl was added per well; • (2) MBP-PCT fusion protein was diluted to 3.3 ng/ml with PBSAD, and 10 µl was added per well; • (3) HB2151 strain containing plasmids with different small subunit sequences were induced by IPTG at 30°C overnight, then treated with polymyxin B for 1.5h, and centrifuged to collect the supernatant, and 2.5µl supernatant was added per well; • (4) The above three components were slightly mixed, incubated at 37°C for 7 min, and Obuffer 6.37-3 containing Furimazine at a concentration of 25 µM was added, and after 3 min, the luminescence signal value was detected using a bioluminescence detector; and • (5) Clones with RLU higher than 10,000 were picked. The substrate was replaced with CTZ-h substrate for retesting (Obuffer 6.37-3 containing CTZ-h at a concentration of 25 µM was added, and after 60 s, the luminescence signal value was detected using a bioluminescence detector), and a PBSAD control was added to test the signal-to-noise ratio.

[2] = test system: PCT; test: Sensitivity and linear range for PCT detection of preferred small subunits (Example 5); assay type: biochemical, human; settings: for luminescence value: normalized; for Signal-to-noise ratio at 1000 pg/ml: large subunit 8.3~25 nM, small subunit fusion 30~180 nM, CTZ-h 15 µM
Method: Detection Methods: • (1) The concentration of large subunit-rSCFV5 fusion protein was diluted with PBSA to 8.3~25nM, and 15µl was added per well; • (2) MBP-PCT fusion proteins were diluted with PBSAD in a downward gradient starting from 2.5 µg/ml, and 10 µl was added per well; • (3) The rSCFV18-small subunit mutant-containing fusion protein was diluted with PBSA to 30~180 nM, and 15 µl was added per well; • (4) The above three components were slightly mixed, incubated at 37°C for 15 min, and Obuffer 6.37-3 containing CTZ-h at a concentration of 15 µM was added, and the luminescence signal value was immediately detected using a bioluminescence detector (the luminescence value was normalized);

Sequence	Signal-to-noise ratio [1]	PCT+ [1]	PCT- [1]	also measured
VDGWRLFDKKS [RC-103]	6.5	8672	1337	
VDGWRLFDKKS [RC-175]	11.8	6953	587	
VDGWRLFDKKS [RC-224]	9.2	10561	1142	luminescence value ([2]; PCT 0.0, background): 5000; luminescence value ([2]; PCT 1 (pg/ml)): 5021; luminescence value ([2]; PCT 3 (pg/ml)): 5002; luminescence value ([2]; PCT 10 (pg/ml)): 5260; luminescence value ([2]; PCT 30 (pg/ml)): 5685; luminescence value ([2]; PCT 100 (pg/ml)): 7341; luminescence value ([2]; PCT 1000 (pg/ml)): 28543; luminescence value ([2]; PCT 10000 (pg/ml)): 240337; luminescence value ([2]; PCT 100000 (pg/ml)): 1453897; luminescence value ([2]; PCT 250000 (pg/ml)): 1856339; Signal-to-noise ratio at 1000 pg/ml [2]: 5.7
VDGWRLFERKS [RC-171]	7.6	10309	1363	
VDGYRLFEKVS [RC-263]	7.0	4768	685	luminescence value ([2]; PCT 0.0, background): 5000; luminescence value ([2]; PCT 1 (pg/ml)): 5132; luminescence value ([2]; PCT 3 (pg/ml)): 5234; luminescence value ([2]; PCT 10 (pg/ml)): 5192; luminescence value ([2]; PCT 30 (pg/ml)): 5647; luminescence value ([2]; PCT 100 (pg/ml)): 7134; luminescence value ([2]; PCT 1000 (pg/ml)): 28776; luminescence value ([2]; PCT 10000 (pg/ml)): 240937; luminescence value ([2]; PCT 100000 (pg/ml)): 1556694; luminescence value ([2]; PCT 250000 (pg/ml)): 2230650; Signal-to-noise ratio at 1000 pg/ml [2]: 5.8
VDGYRLFERKS [RC-203]	6.6	10062	1536	
VEGWRIFERKW [RC-070]	5.2	8980	1715	
VEGWRLFDRKS [RC-232]	5.8	18313	3183	
VEGWRLFDRVS [RC-237]	5.0	10821	2186	
VEGYRIFEKKW [RC-286]	11.4	5003	438	luminescence value ([2]; PCT 0.0, background): 5000; luminescence value ([2]; PCT 1 (pg/ml)): 4670; luminescence value ([2]; PCT 3 (pg/ml)): 4645; luminescence value ([2]; PCT 10 (pg/ml)): 4833; luminescence value ([2]; PCT 30 (pg/ml)): 5406; luminescence value ([2]; PCT 100 (pg/ml)): 6696; luminescence value ([2]; PCT 1000 (pg/ml)): 27596; luminescence value ([2]; PCT 10000 (pg/ml)): 236023; luminescence value ([2]; PCT 100000 (pg/ml)): 1443932; luminescence value ([2]; PCT 250000 (pg/ml)): 2007480; Signal-to-noise ratio at 1000 pg/ml [2]: 5.5
VEGYRLFDKVS [RC-087]	8.0	6923	861	
VEGYRLFDKVS [RC-215]	11.2	5972	531	luminescence value ([2]; PCT 0.0, background): 5000; luminescence value ([2]; PCT 1 (pg/ml)): 5095; luminescence value ([2]; PCT 3 (pg/ml)): 5206; luminescence value ([2]; PCT 10 (pg/ml)): 5458; luminescence value ([2]; PCT 30 (pg/ml)): 6156; luminescence value ([2]; PCT 100 (pg/ml)): 7892; luminescence value ([2]; PCT 1000 (pg/ml)): 35231; luminescence value ([2]; PCT 10000 (pg/ml)): 296125; luminescence value ([2]; PCT 100000 (pg/ml)): 1967363; luminescence value ([2]; PCT 250000 (pg/ml)): 2983773; Signal-to-noise ratio at 1000 pg/ml [2]: 7.0
VEGYRLFDKVS [RC-247]	8.8	4398	497	
VEGYRLFDRKS [RC-218]	7.9	7242	921	luminescence value ([2]; PCT 0.0, background): 5000; luminescence value ([2]; PCT 1 (pg/ml)): 4937; luminescence value ([2]; PCT 3 (pg/ml)): 4976; luminescence value ([2]; PCT 10 (pg/ml)): 5164; luminescence value ([2]; PCT 30 (pg/ml)): 5701; luminescence value ([2]; PCT 100 (pg/ml)): 7494; luminescence value ([2]; PCT 1000 (pg/ml)): 31585; luminescence value ([2]; PCT 10000 (pg/ml)): 266213; luminescence value ([2]; PCT 100000 (pg/ml)): 1757745; luminescence value ([2]; PCT 250000 (pg/ml)): 2436323; Signal-to-noise ratio at 1000 pg/ml [2]: 6.3
VEGYRLFEKIS [RC-036]	5.5	8563	1565	
VEGYRLFEKIS [RC-082]	5.8	12852	2232	
VEGYRLFEKIS [RC-239]	6.0	10022	1676	
VEGYRLFEKVS [RC-042]	9.7	5769	593	
VEGYRLFERKS [RC-105]	5.0	14534	2934	
VEGYRLFERKS [RC-145]	10.1	8198	808	
VNGWRIFDKKS [RC-242]	5.9	9037	1524	

Sequence	Signal-to-noise ratio [1]	PCT+ [1]	PCT- [1]	also measured
VNGWRLFDKKS [RC-271]	5.0	7132	1428	
VSGWRIFDKKS [RC-124]	7.5	9280	1234	
VSGWRIFDRKS [RC-041]	4.7	11789	2495	
VSGYRIFDKKS [RC-044]	8.0	10392	1302	
VSGYRIFEKKS [RC-129]	5.8	12040	2068	
VSGYRIFEKKS [RC-152]	5.6	9688	1715	
VSGYRIFEKKW [RC-113]	5.3	6207	1176	
VSGYRIFERKW [RC-206]	5.9	7413	1260	
VSGYRLFDKKS [RC-134]	7.7	9409	1223	
VSGYRLFDKKS [RC-187]	7.9	11049	1405	luminescence value ([2]; PCT 0.0, background): 5000; luminescence value ([2]; PCT 1 (pg/ml)): 4944; luminescence value ([2]; PCT 3 (pg/ml)): 4968; luminescence value ([2]; PCT 10 (pg/ml)): 5099; luminescence value ([2]; PCT 30 (pg/ml)): 5570; luminescence value ([2]; PCT 100 (pg/ml)): 7032; luminescence value ([2]; PCT 1000 (pg/ml)): 27642; luminescence value ([2]; PCT 10000 (pg/ml)): 214329; luminescence value ([2]; PCT 100000 (pg/ml)): 910908; luminescence value ([2]; PCT 250000 (pg/ml)): 1012760; Signal-to-noise ratio at 1000 pg/ml [2]: 5.5
VSGYRLFDKKW [RC-099]	7.0	8149	1164	luminescence value ([2]; PCT 0.0, background): 5000; luminescence value ([2]; PCT 1 (pg/ml)): 5106; luminescence value ([2]; PCT 3 (pg/ml)): 5166; luminescence value ([2]; PCT 10 (pg/ml)): 5453; luminescence value ([2]; PCT 30 (pg/ml)): 5950; luminescence value ([2]; PCT 100 (pg/ml)): 7470; luminescence value ([2]; PCT 1000 (pg/ml)): 28688; luminescence value ([2]; PCT 10000 (pg/ml)): 243815; luminescence value ([2]; PCT 100000 (pg/ml)): 1744023; luminescence value ([2]; PCT 250000 (pg/ml)): 2942238; Signal-to-noise ratio at 1000 pg/ml [2]: 5.7
VSGYRLFDKKW [RC-261]	4.5	7217	1616	
VSGYRLFDKVS [RC-114]	6.5	6401	982	
VSGYRLFDKVS [RC-208]	6.0	12303	2056	
VSGYRLFDRKS [RC-018]	6.6	13188	1998	
VSGYRLFDRKS [RC-098]	5.1	8666	1698	
VSGYRLFDRKS [RC-228]	5.4	16339	3000	
VSGYRLFDRKW [RC-033]	10.4	8509	820	
VSGYRLFDRVS [RC-032]	4.8	9519	1998	
VSGYRLFDRVW [RC-220]	5.7	6738	1192	
